Literature values in article PMC5510229, “BCAT1 controls metabolic reprogramming in activated human macrophages and is associated with inflammatory diseases” (Nature Communications, 2017).

Legend:
[1] = tested on: a2δ−1 and a2δ−2 subunits of voltage-activated calcium channels; parameters: method as in PMID 19128880; conditions: cited from earlier work
[2] = parameters: method as in PMID 10381778; conditions: cited from earlier work

With `NCC1(CC(=O)O)CCCCC1` [gabapentin] as the molecule, how does the binding affinity [1] read?
Its binding affinity is “high affinity”.

What about the anti-inflammatory effects [2] of the same molecule?
Its anti-inflammatory effects is “no apparent anti-inflammatory effects”.
